In patent publication US8592456B2 (4SC Discovery GmbH, priority 2011, dated 2013):
Where two headings read alike, the source gives them in different places.

Tested on: PBMC (T cell proliferation)
Test: T cell proliferation assay, PHA-stimulated human PBMC (BrdU ELISA)
Format: cell-based
Details: 48 hours, BrdU
Description: Cell proliferation was analysed using the BrdU based cell proliferation ELISA from Roche (Mannheim, Germany) according to the manufacturer's instructions.
T Cell Proliferation Assay
Peripheral blood mononuclear cells (PBMC) from healthy human donors were isolated by centrifugation over Ficoll-Hypaque (Sigma-Aldrich, Germany) according to manufacturer's instructions. Purified PBMC were washed twice with PBS and resuspended in RPMI1640 culture medium supplemented with 10% dialyzed heat inactivated fetal calf serum, 1.5 mM L-glutamine, 100 U penicillin/ml, and […] (all from PAN Biotech, Aidenbach, Germany). For stimulation, PBMC were seeded at 1×10^5 cells/well, activated with 2 μg/ml phytohaemagglutinin (PHA, Sigma) and incubated with the test compound. After 48 hours proliferation was measured using the BrdU based cell proliferation ELISA from Roche (Mannheim, Germany) according to the manual.

[1] = human PBMC, 2 μg/ml PHA, read-out: D: IC50 (Tcell proliferation)
[2] = PHA-stimulated human PBMC, column D, activity classes 1-4, read-out: IC50 (Tcell proliferation)

| Structure (SMILES) | IC50 [1] [µM] | IC50 [2] [µM] |
| --- | --- | --- |
| CCOC(=O)c1c(-c2onc(-c3c(F)cccc3Cl)c2C(=O)OC)cnn1-c1cccc(Cl)c1 [Example 10, methyl 3-(2-chloro-6-fluorophenyl)-5-(1-(3-chlorophenyl)-5-(ethoxycarbonyl)-1H-pyrazol-4-yl)isoxazole-4-carboxylate] | 0.01 to 0.1 | – |
| CSC(=O)c1c(-c2c(F)cccc2Cl)noc1-c1cnn(-c2cccc(F)c2)c1C(F)(F)F [Example 128, S-methyl 3-(2-chloro-6-fluorophenyl)-5-(1-(3-fluorophenyl)-5-(trifluoromethyl)-1H-pyrazol-4-yl)isoxazole-4-carbothioate] | < 0.01 | – |
| CON(C)C(=O)c1c(-c2c(F)cccc2Cl)noc1-c1cnn(-c2cccc(F)c2)c1C(F)(F)F [Example 135, 3-(2-chloro-6-fluorophenyl)-5-(1-(3-fluorophenyl)-5-(trifluoromethyl)-1H-pyrazol-4-yl)-N-methoxy-N-methylisoxazole-4-carboxamide] | 0.1 to 1 | – |
| CCOc1cc(-n2ncc(-c3onc(-c4c(F)cccc4Cl)c3C(=O)OC)c2C(F)(F)F)ncn1 [Example 116, methyl 3-(2-chloro-6-fluorophenyl)-5-(1-(6-ethoxypyrimidin-4-yl)-5-(trifluoromethyl)-1H-pyrazol-4-yl)isoxazole-4-carboxylate] | 1 to 10 | – |
| CCOC(=O)c1c(-c2ccncc2F)noc1-c1cnn(-c2cccc(F)c2)c1C(F)(F)F [Example B-14, ethyl 5-(1-(3-fluorophenyl)-5-(trifluoromethyl)-1H-pyrazol-4-yl)-3-(3-fluoropyridin-4-yl)isoxazole-4-carboxylate] | 1 to 10 | – |
| Fc1cccc(Cl)c1-c1noc(-c2cnn(-c3ccncc3)c2C(F)(F)F)c1-c1nnco1 [IB-16, 2-(3-(2-chloro-6-fluorophenyl)-5-(1-(pyridin-4-yl)-5-(trifluoromethyl)-1H-pyrazol-4-yl)isoxazol-4-yl)-1,3,4-oxadiazole] | – | 0.1 to 1 |
| Fc1cccc(-n2ncc(-c3onc(-c4c(F)cccc4Cl)c3-c3ccoc3)c2C(F)(F)F)c1 [Example I-13, 3-(2-chloro-6-fluorophenyl)-5-(1-(3-fluorophenyl)-5-(trifluoromethyl)-1H-pyrazol-4-yl)-4-(furan-3-yl)isoxazole] | – | 1 to 10 |
| CCOC(=O)c1c(-c2c(F)cccc2Cl)noc1-c1cnn(Cc2ccccc2F)c1C(F)(F)F [Example B-80, ethyl 3-(2-chloro-6-fluorophenyl)-5-(1-(2-fluorobenzyl)-5-(trifluoromethyl)-1H-pyrazol-4-yl)isoxazole-4-carboxylate] | 1 to 10 | – |
| COC(=O)c1c(-c2ccc(OC)cc2)noc1-c1cnn(-c2cccc(F)c2)c1C(F)(F)F [Example 107, methyl 5-(1-(3-fluorophenyl)-5-(trifluoromethyl)-1H-pyrazol-4-yl)-3-(4-methoxyphenyl)isoxazole-4-carboxylate] | 1 to 10 | – |
| COC(=O)c1c(-c2ccccc2F)noc1-c1cnn(-c2cccc(F)c2)c1C(F)(F)F [Example 92, methyl 3-(2-fluorophenyl)-5-(1-(3-fluorophenyl)-5-(trifluoromethyl)-1H-pyrazol-4-yl)isoxazole-4-carboxylate] | 0.1 to 1 | – |
| COC(=O)c1c(-c2c(F)cccc2Cl)noc1-c1cnn(-c2ccccc2Cl)c1C(F)(F)F [Example B-20, methyl 3-(2-chloro-6-fluorophenyl)-5-(1-(2-chlorophenyl)-5-(trifluoromethyl)-1H-pyrazol-4-yl)isoxazole-4-carboxylate] | 1 to 10 | – |
| COC(=O)c1c(-c2cccc(F)c2)noc1-c1cnn(-c2cccc(F)c2)c1C(F)(F)F [Example 106, methyl 3-(3-fluorophenyl)-5-(1-(3-fluorophenyl)-5-(trifluoromethyl)-1H-pyrazol-4-yl)isoxazole-4-carboxylate] | 1 to 10 | – |
| Fc1ccccc1-n1ncc(-c2onc(-c3c(F)cccc3Cl)c2-c2nnco2)c1C(F)(F)F [Example I-15, 2-(3-(2-chloro-6-fluorophenyl)-5-(1-(2-fluorophenyl)-5-(trifluoromethyl)-1H-pyrazol-4-yl)isoxazol-4-yl)-1,3,4-oxadiazole] | – | 0.1 to 1 |
| COC(=O)c1c(-c2c(F)cccc2Cl)noc1-c1cnn(-c2ccccc2F)c1 [Example 89, Methyl 3-(2-chloro-6-fluorophenyl)-5-[1-(2-fluorophenyl)-1H-pyrazol-4-yl]isoxazole-4-carboxylate] | 0.1 to 1 | – |
| Cc1nnc(-c2c(-c3c(F)cccc3Cl)noc2-c2cnn(-c3ccccc3Cl)c2C(F)(F)F)s1 [IB-20, 3-(2-chloro-6-fluorophenyl)-5-(1-(2-chlorophenyl)-5-(trifluoromethyl)-1H-pyrazol-4-yl)-4-(5-methyl-1,3,4-thiadiazol-2-yl)isoxazole] | – | 0.1 to 1 |
| CCOC(=O)c1c(-c2ccc(Cl)cc2Cl)noc1-c1cnn(-c2cccc(Cl)c2)c1C(F)(F)F [Example B-46, ethyl 5-(1-(3-chlorophenyl)-5-(trifluoromethyl)-1H-pyrazol-4-yl)-3-(2,4-dichlorophenyl)-isoxazole-4-carboxylate] | 0.1 to 1 | – |
| COC(=O)Nc1c(-c2c(F)cccc2Cl)noc1-c1cnn(-c2cccc(F)c2)c1C(F)(F)F [Example 138, methyl 3-(2-chloro-6-fluorophenyl)-5-[1-(3-fluorophenyl)-5-(trifluoromethyl)-1H-pyrazol-4-yl]isoxazol-4-ylcarbamate] | 0.1 to 1 | – |
| Nc1c(-c2c(F)cccc2Cl)noc1-c1cnn(-c2cccc(Cl)c2)c1C(F)(F)F [Example B-36, 3-(2-chloro-6-fluorophenyl)-5-(1-(3-chlorophenyl)-5-(trifluoromethyl)-1H-pyrazol-4-yl)isoxazol-4-amine] | 0.1 to 1 | – |
| CC(=O)Nc1c(-c2c(F)cccc2Cl)noc1-c1cnn(-c2cccc(F)c2)c1C(F)(F)F [Example 139, N-(3-(2-chloro-6-fluorophenyl)-5-(1-(3-fluorophenyl)-5-(trifluoromethyl)-1H-pyrazol-4-yl)isoxazol-4-yl)acetamide] | 1 to 10 | – |
| COC(=O)c1c(-c2c(Cl)cccc2Cl)noc1-c1cnn(-c2cccc(F)c2)c1C(F)(F)F [Example 109, methyl 3-(2,6-dichlorophenyl)-5-(1-(3-fluorophenyl)-5-(trifluoromethyl)-1H-pyrazol-4-yl)isoxazole-4-carboxylate] | < 0.01 | – |
| CCOC(=O)c1c(-c2c(F)cccc2Cl)noc1-c1cnn(CC2CCCO2)c1C(F)(F)F (stereo not drawn) [Example B-96, ethyl 3-(2-chloro-6-fluorophenyl)-5-(1-((tetrahydrofuran-2-yl)methyl)-5-(trifluoromethyl)-1H-pyrazol-4-yl)isoxazole-4-carboxylate] | 0.01 to 0.1 | – |
| CCOC(=O)c1c(-c2c(F)cccc2Cl)noc1-c1cnn(-c2cccc(C(N)=O)c2)c1C(F)(F)F [Example B-100, ethyl 5-(1-(3-carbamoylphenyl)-5-(trifluoromethyl)-1H-pyrazol-4-yl)-3-(2-chloro-6-fluorophenyl)isoxazole-4-carboxylate] | 1 to 10 | – |
| COC(=O)c1c(-c2c(F)cccc2Cl)noc1-c1cnn(C2CCS(=O)(=O)C2)c1C(F)(F)F (stereo not drawn) [Example 103, methyl 3-(2-chloro-6-fluorophenyl)-5-(1-(3-hydrazinyltetrahydrothiophene 1,1-dioxide)-5-(trifluoromethyl)-1H-pyrazol-4-yl)isoxazole-4-carboxylate] | 0.1 to 1 | – |
| CCOC(=O)c1c(-c2onc(-c3c(F)cccc3Cl)c2C(=O)OC)cnn1-c1ccccc1F [Example 41, methyl 3-(2-chloro-6-phenyl)-5-(5-(ethoxycarbonyl)-1-(2-fluorophenyl)-1H-pyrazol-4-yl)isoxazole-4-carboxylate] | 0.1 to 1 | – |
| Fc1ccc(-n2ncc(-c3onc(-c4c(F)cccc4Cl)c3Br)c2C(F)(F)F)cc1 [Example B-28, 4-bromo-3-(2-chloro-6-fluorophenyl)-5-(1-(4-fluorophenyl)-5-(trifluoromethyl)-1H-pyrazol-4-yl)isoxazole] | 0.1 to 1 | – |
| O=C(c1c(-c2c(F)cccc2Cl)noc1-c1cnn(-c2ccccc2Cl)c1C(F)(F)F)N1CCCO1 [Example B-49, (3-(2-chloro-6-fluorophenyl)-5-(1-(2-chlorophenyl)-5-(trifluoromethyl)-1H-pyrazol-4-yl)isozazol-4-yl)(isoxazolidin-2-yl)methanone] | 1 to 10 | – |
| Cc1nnc(-c2c(-c3c(F)cccc3Cl)noc2-c2cnn(-c3cccc(Cl)c3)c2C(F)(F)F)s1 [IB-3, 3-(2-chloro-6-fluorophenyl)-5-(1-(3-chlorophenyl)-5-(trifluoromethyl)-1H-pyrazol-4-yl)-4-(5-methyl-1,3,4-thiadiazol-2-yl)isoxazole] | – | < 0.01 |
| CON(C)C(=O)c1c(-c2c(F)cccc2Cl)noc1-c1cnn(-c2cccc(Cl)c2)c1C(F)(F)F [Example 63, 3-(2-chloro-6-fluorophenyl)-5-(1-(3-chlorophenyl)-5-(trifluoromethyl)-1H-pyrazol-4-yl)-N-methoxy-N-methylisoxazole-4-carboxamide] | 0.1 to 1 | – |
| CCOC(=O)c1c(-c2onc(-c3c(F)cccc3Cl)c2C(=O)OC)cnn1-c1cc(F)cc(F)c1 [Example 39, methyl 3-(2-chloro-6-fluorophenyl)-5-(1-(3,5-difluorophenyl)-5-(ethoxycarbonyl)-1-H-pyrazol-4-yl)isoxazole-4-carboxylate] | 1 to 10 | – |
| COC(=O)c1c(-c2c(F)cccc2Cl)noc1-c1cnn(-c2ccccn2)c1C(F)(F)F [Example 84, methyl 3-(2-chloro-6-fluorophenyl)-5-(1-(pyridin-2-yl)-5-(trifluoromethyl)-1H-pyrazol-4-yl)isoxazole-4-carboxylate] | < 0.01 | – |
